Data taken from patent publication US6503873B1, “Ultra mild detergent compositions” (Hampshire Chemical Corp, priority 1996, dated 2003).

Tests used:
[1] = Lather stability (lather drainage time, method of Hart and DeGeorge); type: physicochemical; conditions: for enhancement of lather stability of the product by addition as one-third of the product: 3:1 blend; for change in lather stability (lather drainage time) on addition of water hardness: approximately 3,000 ppm water hardness (CaCO3), FIG. 2
Experimental: The lather stability of a surfactant solution, expressed as lather drainage time, can be determined by the method of Hart and DeGeorge, J. Soc. Cosmet. Chem., 31, 223-226 (1980). In this method, a 200 ml portion of the test solution is agitated in a blender for one minute. The lather produced is immediately poured into a Nalgene PF150 funnel, which has been modified for easy detection of endpoint by incorporation of a fine strand of Nicrome wire across the funnel, where the diameter is 9 cm. The funnel is supported by a 20-mesh sieve. The time elapsed between pouring of the blender contents into the funnel and reappearance of the wire through the subsiding foam, determined using a stopwatch, is reported as the lather drainage time in seconds.

human skin cels = test: In vitro skin irritation testing (MTT assay); type: cell-based; conditions: tissue immersed for 24 hours; about 16% solutions
Experimental: Samples of 1) the aforementioned commercial baby shampoo, 2) Na2LED3A, 3) a 3:1 ratio blend of baby shampoo and Na2LED3A, and 4) a 16% solution of sodium laureth 3 sulfate (a surfactant commonly used in ordinary shampoo) were subjected to in vitro skin irritation testing. A sample of the tissue is immersed for 24 hours in a solution of the substance to be evaluated and later assayed for viable mitochondria by an MTT assay. The MTT assay is a colorimetric method for determining cell viability based on the reduction of a tetrazolium salt (MTT) into a colored formazan dye by mitochondrial enzymes of the electron transport chain. The extent to which the number of viable mitochondria has been reduced, compared to a control, is taken as a measure of the toxicity of the test substance to human skin cels. The in vitro scoring classification used was as follows: […]

[2] = product Johnsons Baby 2 in 1 shampoo, hard water (200 ppm CaCO3)
[3] = product Johnsons Baby 2 in 1 shampoo, soft water
[4] = product Johnsons Baby Bath, hard water (200 ppm CaCO3)
[5] = product Johnsons Baby Bath, soft water
[6] = product Johnsons Baby Shampoo, hard water (200 ppm CaCO3)
[7] = product Johnsons Baby Shampoo, soft water
[8] = product Suave Baby Care, hard water (200 ppm CaCO3)
[9] = product Suave Baby Care, soft water
[10] = sodium chloride, 1% solution, pH 7, FIG. 1

| Compound | enhancement of lather stability of the product by addition as one-third of the product [1, 2] | enhancement of lather stability of the product by addition as one-third of the product [1, 3] | enhancement of lather stability of the product by addition as one-third of the product [1, 4] | enhancement of lather stability of the product by addition as one-third of the product [1, 5] | enhancement of lather stability of the product by addition as one-third of the product ([1]; product Johnsons Baby Shampoo, even harder water (400 ppm CaCO3)) | enhancement of lather stability of the product by addition as one-third of the product [1, 6] | enhancement of lather stability of the product by addition as one-third of the product [1, 7] | enhancement of lather stability of the product by addition as one-third of the product [1, 8] | enhancement of lather stability of the product by addition as one-third of the product [1, 9] | lather effectiveness relative to the baby shampoo alone ([1]; pure substance, hard water, versus Johnsons Baby 2 in 1 shampoo, FIG. 11) | change in lather stability (lather drainage time) on addition of water hardness ([1]; 1% solution) | lather drainage time depressed by, upon addition of 4% electrolyte [1, 10] | Classification (in vitro skin irritation) (human skin cels) | In vitro Score MTT-50 (human skin cels) | lather drainage time ([1]; in the presence of 200 ppm hardness, FIG. 10) | lather drainage time increased by, upon addition of 4% electrolyte [1, 10] |
| --- | --- | --- | --- | --- | --- | --- | --- | --- | --- | --- | --- | --- | --- | --- | --- | --- |
| CCCCCCCCCCCC(=O)N(CCN(CC(=O)[O-])CC(=O)[O-])CC(=O)O.[K+].[K+] [K2LED3A, potassium lauroyl-ED3A] | approximately 7 fold | more than 2 fold | approximately 12 fold | approximately 5 fold | more than 24 fold | more than 14 fold | approximately 8 fold | 5 fold | approximately 2 fold |  |  |  |  |  |  |  |
| CCCCCCCCCCCCCC(=O)N(CCN(CC(=O)[O-])CC(=O)[O-])CC(=O)O.[Na+].[Na+] [Na2MED3A, sodium myristoyl ED3A] | 9 fold | more than 9 fold |  |  |  |  |  |  |  | more than 100 times |  |  |  |  |  |  |
| CCCCCCCCCCCCOS(=O)(=O)[O-].[Na+] [sodium lauryl sulfate, reference compound] |  |  |  |  |  |  |  |  |  |  | five-fold reduction | 30 s |  |  |  |  |
| sodium laureth 3 sulfate [Na Laureth(3) sulfate, reference compound] |  |  |  |  |  |  |  |  |  |  |  |  | Moderate (201-1,000) | 522 micro g/ml |  |  |
| sodium lauroyl ED3A [Na2LED3A] | 5 fold | approximately 6 fold | more than 12 fold | more than 4 fold |  | approximately 7 fold | approximately 7 fold | more than 5 fold | more than doubled |  | five-fold increase |  | Non-irritant (>10,000) | >10,000 micro g/ml | over 200 seconds | more than 70 seconds |
